Laboratory results as given in PubChem BioAssay AID1320 (NMMLSC, 2008).
Calls of active or inactive are those of the source. How the calls were made is not given here.

These compounds were tested against Bcl-2-related protein A1 (Homo sapiens) (UniProt Q16548) (assay: inhibitors of Bim binding to Bfl-1, dose response, biochemical, multiplexed, bead-based flow cytometry (AID 1320; on percent span (inhibition): test concentration not given here)). Details: Bim peptide-Bfl-1 binding, fluorescence.
Chain of Bcl-2-related protein A1 (Homo sapiens) (Q16548 whole entry, looked up): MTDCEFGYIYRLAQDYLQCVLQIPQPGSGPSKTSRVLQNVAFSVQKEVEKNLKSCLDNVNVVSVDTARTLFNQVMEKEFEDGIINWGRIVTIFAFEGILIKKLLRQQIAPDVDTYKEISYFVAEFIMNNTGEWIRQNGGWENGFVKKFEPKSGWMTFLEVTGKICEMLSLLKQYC

SMILES	EC50
Clc1ccc2c(N/N=C/c3ccccc3Br)ccnc2c1	inactive
O=C(C1=NN(c2ccccc2)C2C(=O)N(c3ccccc3)C(=O)C12)c1ccccc1 (centres undefined)	1360 nM

Same assay, conditions: Bim peptide-Bfl-1 binding, fluorescence, active compounds read high

SMILES	percent span (inhibition)
COc1ccc(-n2c(=O)c3ccccc3c3ccccc3c2=O)c(OC)c1	inactive
O=C(/C=C/c1c(F)cccc1Cl)Nc1ccncc1	inactive
CCOC(=O)N1CCC(c2cc(=O)n(-c3ccccc3)[nH]2)CC1	inactive
O=C(O)CC/C(=C\c1cc([N+](=O)[O-])ccc1Cl)c1nc2ccccc2s1	inactive
CN1CCN(c2ccc(N)cc2)CC1	inactive
CN1N=C(C(=O)N2CCCC(C(=O)c3cccc(C(F)(F)F)c3)C2)CCC1=O (centres undefined)	inactive
CC(C)(C)C(=O)NC(NC(=S)Nc1ccc(S(N)(=O)=O)cc1)C(Cl)(Cl)Cl (centres undefined)	inactive
O=C1N/C(=C/c2cccn2-c2ccccc2)C(=O)N1Cc1ccc(F)cc1	inactive
c1ccc(-c2nnc(OCCN3CCOCC3)c3ccccc23)cc1	inactive
Cc1cc(N/C(=N/S(=O)(=O)c2cc(F)ccc2F)c2ccccc2)n(-c2ccccc2)n1	inactive
NNC(=O)COc1ccccc1F	inactive
COc1cccc(NC(=O)CSc2nncn2N)c1	inactive
CC1(C)SC(=S)N(NC(=O)Nc2ccccc2)C1N(O)C(=O)Nc1cccc2ccccc12 (centres undefined)	inactive
COc1ccc(C2CN(C)CC2C(=O)c2ccc(F)cc2)cc1Cl (centres undefined)	inactive
COC(=O)Cc1ccc(NC(=S)N2CCN(c3cccc(O)c3)CC2)cc1	inactive
CCOC(=O)c1nn(-c2ccccc2)c(C#N)c1N	inactive
Cc1ccc(-c2cc(C(=O)OCC(=O)N(C)C3CCS(=O)(=O)C3)c3ccccc3n2)o1 (centres undefined)	inactive
Cc1c(N2C(=O)c3ccc4c5c(ccc(c35)C2=O)CC4)c(=O)n(-c2ccccc2)n1C	inactive
O=C(NCCCN1CCN(CCCNC(=O)c2cc([N+](=O)[O-])ccc2Cl)CC1)c1cc([N+](=O)[O-])ccc1Cl	inactive
Cc1ccc(C)c(Oc2ncnc(N)c2[N+](=O)[O-])c1	inactive
Cc1ccc(-n2[nH]c(C)c(/C=N/Nc3ccc([N+](=O)[O-])cc3[N+](=O)[O-])c2=O)cc1C	inactive
Cc1nc2ccccc2n1CSc1ccccc1	inactive

SMILES	percent span (inhibition)
O=C(Nc1nnc(SCc2ccccn2)s1)C1CC(=O)N(c2ccccc2)C1 (centres undefined)	inactive
Cc1ccc(C(=O)N(CCCN(C)C)c2nc3ccc(Cl)cc3s2)cc1C	inactive
CCOc1cc(/C=N/NC(N)=O)ccc1OCC(=O)Nc1ccc(C)c(C)c1	inactive
Cn1c(OCc2cccnc2)nc2c1c(=O)n(Cc1ccccc1)c(=O)n2C	inactive
Cc1cccc(-n2c(-c3ccncc3)n[nH]c2=S)c1	inactive
O=[N+]([O-])c1ccc(-c2cn(-c3ccc(Cl)cc3)c(=S)[nH]2)cc1	inactive
COc1ccccc1C1=Nc2cccc3cccc(c23)N1	inactive
Cn1cc(CN2C[C@]3(C)C[C@H]2CC(C)(C)C3)c(-c2ccc3c(c2)OCCO3)n1	inactive
O=[N+]([O-])c1cccc(S(=O)(=O)NCC2CCCO2)c1 (centres undefined)	inactive
COc1ccc(N=C2NC(=O)/C(=C\C=C\c3ccco3)S2)cc1	inactive
O=C(C[n+]1ccc(-c2nnc3n2CCC3)cc1)c1ccc(Cl)c(Cl)c1	inactive
Cc1ccc(C)n1-c1cccc(C(=O)O)c1	inactive
Cc1ccc2c(c1)c(C)c(C)n2CC(O)Cn1nc(C)c(Br)c1C (centres undefined)	inactive
COc1cc2nc(=S)n(CCCN3CCOCC3)c(N)c2cc1OC	inactive
Clc1ccc2c(N/N=C/c3ccc(Br)cc3)ccnc2c1	inactive
CCc1nnc(NC(=O)CSc2nnc(COc3ccc(C)cc3)n2-c2ccccc2)s1	inactive
COc1ccc(-c2nnc(SCC(=O)Nc3nc4ccccc4s3)n2C)cc1	inactive
COc1ccc(COC(=O)NNC(=O)c2ccccc2Cl)cc1	inactive
CCOC(=O)c1nc(Nc2ccc(N3CCC(C)CC3)cc2)c2ccccc2n1	inactive
c1csc(C2=Nn3c(nnc3-c3ccncc3)SC2)c1	inactive
Cc1cc(C)nc(SCc2cc(=O)c(OC(=O)c3cccc([N+](=O)[O-])c3)co2)n1	inactive
CN(Cc1ccccc1)c1nc2c(c(=O)[nH]c(=O)n2C)n1C	inactive

SMILES	percent span (inhibition)
CC1CCN(C2(O)C(=O)Nc3ccc(Br)cc32)CC1 (centres undefined)	inactive
Cc1ccc(C(=O)C(C(=O)/C=C/c2ccccc2)=C2SCCCS2)cc1	inactive
CNC(=S)N/N=C/C1=CCC2CC1C2(C)C (centres undefined)	inactive
CC[n+]1c(/C=C/C=C/N(C(C)=O)c2ccccc2)sc2ccccc21	inactive
Cc1nnc(NCc2n[nH]c(=O)c3ccccc23)c2ccccc12	inactive
O=C(CSc1ccc2nnc(-c3ccccn3)n2n1)Nc1nccs1	inactive
Cc1cccn2c(=O)c3cc(C(N)=S)c(=N)n(CCCN4CCOCC4)c3nc12	inactive
COc1cc2c(cc1OC)C(c1ccccc1F)OC(=O)C2 (centres undefined)	inactive
COCCCNc1nc(=S)[nH]c2cc(OC)c(OC)cc12	inactive
Cc1cc(Cl)ccc1N=c1ssnc1Cl	inactive
Nc1ccc(N2CCCCCC2)cc1	inactive
CCn1c(C)c(/C=N/Nc2nc3ccccc3s2)c2ccccc21	inactive
Cc1cc(/C=C(/C#N)C(=O)Nc2ccc(Cl)cc2)c(C)n1-c1cccnc1	inactive
CCOC(=O)c1[nH]cnc1C(=O)NC(C)C	inactive
Nc1ccc(-c2cn3cccnc3n2)cc1	inactive
Cc1ccc(-c2cc(C(=O)Nc3ccccc3C)c3ccccc3n2)o1	inactive
CCCCOC(=O)c1nc(Cl)c(Cl)c(N)c1Cl	inactive
COc1ccc(CC(=O)Nc2ccc(C(=O)Nc3nccs3)cc2)cc1OC	inactive
CN=C(NC1CCCCC1)c1ccc(Cl)cc1	inactive
O=C(O)c1ccccc1NSc1ccccc1[N+](=O)[O-]	inactive
COc1ccc(NC(=O)c2ccco2)cc1NC(=O)c1ccco1	inactive
Cc1ccc(-n2nc(C)c(C(=O)O)n2)c(C)c1	inactive

SMILES	percent span (inhibition)
COC(=O)c1[nH]c2ccccc2c1NC(=O)c1ccccc1[N+](=O)[O-]	inactive
COC(=O)c1c(NC(=O)COc2ncnc3ccccc23)sc(C)c1C	inactive
Cn1c(CNc2nc(-c3ccccc3)cs2)nnc1SCC(=O)N1CCc2ccccc21	inactive
COc1ccc(C(=O)Nc2ccc(NC(=O)c3cccs3)cc2)cc1Cl	inactive
CCN1CCN(CC(=O)c2c[nH]c3ccc(C)cc23)CC1	inactive
CCOC(=O)C1=C(CP(=O)(c2ccccc2)c2ccccc2)NC(=O)NC1c1ccc(OC)cc1 (centres undefined)	inactive
O=C(NCc1ccco1)C1CC2CCC1C2 (centres undefined)	inactive
COc1ccc(C2=Nn3c(nnc3-c3ccccn3)SC2)cc1OC	inactive
Cc1ccc(-c2ccc(CCC(=O)O)n2NC(=O)c2cccs2)cc1	inactive
COc1cc(NC(=S)NCCCO)c(OC)cc1Cl	inactive
FC(F)(F)c1ccc2c(c1)C1C=CCC1C(c1ccncc1)N2 (centres undefined)	inactive
O=C(COc1ccccc1Br)NCc1ccccn1	inactive
OC(CNC1CCCCC1)COCCOc1ccc(Br)cc1 (centres undefined)	inactive
O=S1(=O)N=C(N(CCO)/N=C/c2ccccc2)c2ccccc21	inactive
C=CCn1c(C)c(C(C)=O)c(N2CCOCC2)nc1=S	inactive
S=C(NCCc1ccccc1)NCCc1ccccc1	inactive
COc1ccc(S(=O)(=O)NCCSc2ccccc2)cc1OC	inactive
CCCc1nnc2n1N=C(c1ccc(-c3cc(Cl)ccc3Cl)o1)CS2	inactive
Cc1[nH]c2ccccc2c1C(=O)COC(=O)c1c(-c2c(F)cccc2Cl)noc1C	inactive
CCN(CC)c1ccc(NC(=O)c2ccccc2)cc1S(=O)(=O)Nc1ccccc1OC	inactive
COc1ccc(/C=C2\SC(=O)NC2=S)cc1OC	inactive
